Results: patent publication US10730892B2, “Homoallylamines as formaldehyde-responsive triggers” (The Regents of the University of California, priority 2015, dated 2020)
Several values for one entry are separate records, joined by “and”; a condition that tells them apart may be missing. Identical values can stand only once. Like-named read-outs stand apart in the source and are kept apart here.

Experiments:
[1] = tested on: Neuroscreen-1 (NS1) cells
Method: (§1) FIG. 12 depicts live-cell imaging of NS1 cells. […] Cells were irradiated with the 633 nm HeNe laser set at 3% power with a pinhole size of 1 airy unit. The emission was collected between 645 and 800 nm. Scale bar represents 20 μm. Pseudo-coloring represents intensity distribution from highest intensity indicated by white to the lowest intensity designated by black.
(§2) FIG. 13 depicts quantification of observed fluorescence intensity by confocal imaging in NS1 cells after incubation with 1 mM, 2.5 mM or 5 mM FA for 1 (light grey bars), 2 (dark grey bars) and 3 h (black bars). A Ham's F-12K vehicle was added to control cells which was normalized to 1 (white bars). […] For each condition, a minimum of 5 images were averaged (n>5). Errors represent standard deviation.
FIG. 20 depicts quantification of data obtained from confocal microscopy images acquired by irradiation of NS1 cells treated with a vehicle control, 0.25 mM and 0.5 mM FA at 37° C. for 3 hrs with the 633 nm HeNe laser. […] For each condition, a minimum of 5 images were averaged (n>5). Errors represent standard deviation.
(§3) HEK293TN cells were obtained from Prof. Paul Hergenrother (UIUC, Chemistry) and cultured in phenol-red free Dulbecco's modified eagle medium (DMEM, Corning) supplemented with 10% fetal bovine serum (FBS, Sigma Aldrich), and 1% penicillin/streptomycin (Corning). Neuroscreen-1 cells were obtained from Prof. Kai Zhang (UIUC, Biochemistry) and cultured in Ham's F-12K medium (Sigma Aldrich) supplemented with 15% horse serum (Hyclone), 2.5% fetal bovine serum (FBS, Sigma Aldrich), and 1% penicillin/streptomycin (Corning). Cells were incubated at 37° C. and 5% CO2. One day before imaging, cells were passed and plated on 8-well chambered coverglasses (Lab-Tek) at a density of 40,000 cells per mL (or 20,000 cells per well). Cells would reach 70-80% confluency before imaging. […] Samples of HEK293TN and NS1 cells for flow cytometry were prepared by passaging and seeding each well of a 6-well cluster culture dish (Cyto-One) with 300,000 cells one day before experiments. […] Stained cells were aspirated and serum-free DMEM added. Subsequently, a 10× concentrated FA solution was added to give a final concentration of 1.0 mM. 2.5 mM and 5 mM. After incubation cells with FA, the media was removed and replaced with serum-free DMEM. Finally, cells were trypsinized, pelleted via centrifugation, resuspended in phosphate-buffered saline (PBS) for flow cytometric analysis.
(§4) Prior to imaging, cells were allowed to recover in FA-free buffer for 30 min. […] Because FA is a powerful fixative, cell viability assays were performed to determine the cytotoxicity of FA under experimental conditions. A dye exclusion protocol was employed, utilizing trypan blue to selectively stain and distinguish dead cells from those that were viable. […] To further verify that the cell populations under investigation were indeed alive, DAPI, a cell permeable nuclear and chromosome counterstain, was employed to identify intact nuclei (FIG. 16).
(§5) For example, semicarbazide-sensitive amine oxidase (SSAO) is primarily localized to the plasma membrane (Andres et al., J. Histochem. Cytochem. 2001, 49:209). Thus, both HEK293TN and NS1 cells were costained with ER-Tracker Green, LysoTracker Green DND-26, and MitoTracker Green FM, fluorescent indicators that are known to selectively stain the endoplasmic reticulum, lysosome, and mitochondria, respectively in almost all cell types (FIG. 17A and FIG. 17B).

[2] = tested on: HEK293TN cells
Method: as §1, with “9” for “12”, “HEK293TN” for “NS1”
as §2, with “FIG. 10” for “FIG. 13”, “depicts the” for “depicts”, “in HEK293TN” for “in NS1”, “3 hrs” for “3 h”, “A DMEM” for “A Ham's F-12K”
as §3, §4

[3] = tested on: HEK293TN cells; settings: 100 scans at 25% laser power, pinhole 1 airy unit
Description: as §5

[4] = tested on: HEK293TN and NS1 cells; settings: 1 μM FP1 for 8 min, imaged after 30 min and after 8 hrs
Description: as §5

[5] = tested on: HEK293TN and NS1 cells; settings: 2 μM FP1, 1 μM tracker, both cell lines
Description: Scale bar represents 20 μm.
as §5

SMILES: C=CCC(NCc1ccc([N+](=O)[O-])cc1)c1cn(C)c2cc(C)c(C3=C4C=CC(=O)C=C4[Si](C)(C)c4c3cc3c5c4CCCN5CCC3)cc12 (centres unmarked) [FP1]
- fold fluorescence increase (time-lapse imaging) ([1]; NS1, 1 μM FP1, on-stage addition of 1 mM FA at 25° C., 2 hrs): 1.3 fold
- fold increase in fluorescence intensity (confocal) ([1]; NS1, 2 μM FP1, 1 mM FA, 1 hr): 0 fold
- fold increase in fluorescence intensity (confocal) ([1]; NS1, 2 μM FP1, 1 mM FA, 2 hrs): 1.1 fold
- fold increase in fluorescence intensity (confocal) ([1]; NS1, 2 μM FP1, 1 mM FA, 3 hrs): 1.6 fold
- fold increase in fluorescence intensity (confocal) ([1]; NS1, 2 μM FP1, 2.5 mM FA, 1 hr): 1.3 fold
- fold increase in fluorescence intensity (confocal) ([1]; NS1, 2 μM FP1, 2.5 mM FA, 2 hrs): 1.5 fold
- fold increase in fluorescence intensity (confocal) ([1]; NS1, 2 μM FP1, 2.5 mM FA, 3 hrs): 2.0 fold
- fold increase in fluorescence intensity (confocal) ([1]; NS1, 2 μM FP1, 5 mM FA, 1 hr): 1.8 fold
- fold increase in fluorescence intensity (confocal) ([1]; NS1, 2 μM FP1, 5 mM FA, 2 hrs): 2.0 fold
- fluorescence increase (confocal) ([1]; NS1, 0.25 mM FA, 37° C., 3 hrs): 16%
- signal enhancement (confocal) ([1]; NS1, 0.5 mM FA, 37° C., 3 hrs): 38%
- fold increase in fluorescence intensity (confocal) ([2]; 2 μM FP1, 1 mM FA, 1 hr): 1.2 fold
- fold increase in fluorescence intensity (confocal) ([2]; 2 μM FP1, 1 mM FA, 2 hrs): 1.3 fold
- fold increase in fluorescence intensity (confocal) ([2]; 2 μM FP1, 1 mM FA, 3 hrs): 1.6 fold
- fold increase in fluorescence intensity (confocal) ([2]; 2 μM FP1, 2.5 mM FA, 1 hr): 1.2 fold
- fold increase in fluorescence intensity (confocal) ([2]; 2 μM FP1, 2.5 mM FA, 2 hrs): 1.7 fold
- fold increase in fluorescence intensity (confocal) ([2]; 2 μM FP1, 2.5 mM FA, 3 hrs): 2.2 fold
- fold increase in fluorescence intensity (confocal) ([2]; 2 μM FP1, 5 mM FA, 1 hr): 2.1 fold
- fold increase in fluorescence intensity (confocal) ([2]; 2 μM FP1, 5 mM FA, 2 hrs): 2.6 fold
- fold increase in fluorescence intensity (confocal) ([2]; 2 μM FP1, 5 mM FA, 3 hrs): ~3 fold and 2.9 fold and 2.8 fold
- photostability toward repeated irradiation [3]: no decrease in fluorescence
- dye efflux: change in fluorescence [4]: no statistically significant decrease in fluorescence
- staining pattern (overlay with ER-Tracker Green) [5]: stained the cytoplasm, as well as the endoplasmic reticulum
